{"source": "patent US20170258930A1", "about": "“SKIN PENETRATING PEPTIDES (SPPS) AND METHODS OF USE THEREFOR” (The Regents of the University of California, priority 2014, published 2017)"}
{"system": "full thickness porcine skin", "assay": "Phage display library (PDL) screening for skin penetrating peptides on porcine skin in Franz diffusion cells", "assay_type": "in vitro ADME", "conditions": "after third round of screening; phage-displayed 12-mer peptides; four different skin samples (n = 4); receptor collected after 24 hours", "description": "(§1) Phage Display Library (PDL) screening was performed on full thickness porcine skin using Franz diffusion cells. Porcine skin was sandwiched in between the donor and receptor compartments in such a way that SC faced the donor compartment. Phosphate-buffered saline (PBS: 10 mM), pH 7.4 (12 ml) was added in the receptor compartment. The skin was equilibrated at 37° C. for 0.5-1 hours before the experiment. The skin integrity was determined by measuring the skin conductivity.\n(§2) To perform PDL screening, 1×10^11 plaque forming units (pfu) of phages from a 12-mer phage display peptide library (PDL) were added into the donor compartment and covered with parafilm to maintain the occlusive condition. Phage particles which permeated across the skin were collected from the receptor chamber after 24 hours and amplified using a standard M13 phage amplification protocol. Amplified pool of phages (1×10^11 pfu) was loaded again in the donor chamber for another round of screening. In this way, three rounds of screenings were performed.\n(§3) After third round of screening, DNAs were isolated from phages, which crossed the skin consistently in higher numbers, and sent for DNA sequencing to analyze the peptide present on their surface. After three round of screening, seven (7) peptide sequences that consistently crossed the skin were identified (see Table 3). […] The identified peptides, SEQ ID NOs: 1-7, are referred to herein as skin penetrating peptides (SPPs)."}
{"sequence": "AYNAGSILENNF [YNAGSILENNF (SEQ ID NO: 5), 12-mer skin penetrating peptide (SPP) identified by phage display library screening on porcine skin]", "Frequency (how many times a same peptide sequence was identified when 31 peptides were randomly picked from the receptor compartment)": "2 out of 31"}
{"sequence": "GYGFSNTNSFFV [GYGFSNTNSFFV (SEQ ID NO: 3), 12-mer skin penetrating peptide (SPP) identified by phage display library screening on porcine skin]", "Frequency (how many times a same peptide sequence was identified when 31 peptides were randomly picked from the receptor compartment)": "3 out of 31"}
{"sequence": "HIITDPNMAEYL [HIITDPNMAEYL (SEQ ID NO: 1), 12-mer skin penetrating peptide (SPP) identified by phage display library screening on porcine skin]", "Frequency (how many times a same peptide sequence was identified when 31 peptides were randomly picked from the receptor compartment)": "8 out of 31"}
{"sequence": "LVPDRMTAISRA [LVPDRMTAISRA (SEQ ID NO: 6), 12-mer skin penetrating peptide (SPP) identified by phage display library screening on porcine skin]", "Frequency (how many times a same peptide sequence was identified when 31 peptides were randomly picked from the receptor compartment)": "2 out of 31"}
{"sequence": "NSLRNYDFLITM [NSLRNYDFLITM (SEQ ID NO: 7), 12-mer skin penetrating peptide (SPP) identified by phage display library screening on porcine skin]", "Frequency (how many times a same peptide sequence was identified when 31 peptides were randomly picked from the receptor compartment)": "2 out of 31"}
{"sequence": "SHMQNRPASDEH [SHMQNRPASDEH (SEQ ID NO: 4), 12-mer skin penetrating peptide (SPP) identified by phage display library screening on porcine skin]", "Frequency (how many times a same peptide sequence was identified when 31 peptides were randomly picked from the receptor compartment)": "3 out of 31"}
{"sequence": "SYTQRADSTTLH [SYTQRADSTTLH (SEQ ID NO: 2), 12-mer skin penetrating peptide (SPP) identified by phage display library screening on porcine skin]", "Frequency (how many times a same peptide sequence was identified when 31 peptides were randomly picked from the receptor compartment)": "3 out of 31"}
{"system": "full thickness porcine skin", "assay": "Phage display library (PDL) screening for skin penetrating peptides on porcine skin in Franz diffusion cells", "assay_type": "in vitro ADME", "conditions": "after three rounds of screening, full thickness porcine skin", "description": "as §1, §2, §3"}
{"sequence": "HIITDPNMAEYL [HIITDPNMAEYL (SEQ ID NO: 1), 12-mer skin penetrating peptide (SPP) identified by phage display library screening on porcine skin]", "Crossing of the skin by phage displaying the peptide (in words)": "crossed the skin at very high frequency"}
